Data on 5 compounds can be found in US4198421A, “Antiinflammatory 2-substituted-dibenzo[2,3:6,7]oxepino[4,5-d]imidazoles” (E. I. Du Pont de Nemours and Company, priority 1978, dated 1980).

Like-named read-outs stand apart in the source and are kept apart here.

This test has as its system adjuvant-induced arthritis. Briefly: Established Adjuvant-Induced Arthritis in Rats (A.A.). Conditions: Rattus norvegicus, 168 h, read-out: A. A. ED50%. The test is classed as in vivo, Charles River Lewis male rats.
[1] abbreviates: ED50% decrease from control paw volume (uninjected, left hind paw), established adjuvant-induced arthritis, oral gavage daily, 7 days, read by visual fit.

By ED50 is commonly meant the dose that gives a 50% effect, or the effect in half of the subjects.

For the compound `Fc1ccc2c(c1)Oc1ccccc1-c1nc(SC(F)(F)C(F)F)[nH]c1-2` [1 (k), 10-Fluoro-2-[(1,1,2,2-tetrafluoroethyl)thio]-1H-dibenzo[2,3:6,7]oxepino[4,5-d]imidazole], under setting [1], the ED50 was < 27 mg/kg. For `O=S(=O)(c1nc2c([nH]1)-c1ccc(F)cc1Oc1ccccc1-2)C(F)(F)C(F)F` [Example 2, 10-Fluoro-2-[(1,1,2,2-tetrafluoroethyl)sulfonyl]-1H-dibenzo[2,3:6,7]oxepino[4,5-d]imidazole], the ED50 under setting [1] is 4.5 mg/kg. In the case of `CC(C)Cc1ccc(C(C)C(=O)O)cc1` (centres unmarked) [Ibuprofen, ibuprofen], the ED50 under setting [1] was found to be 100 mg/kg. Take `COc1ccc2c(c1)c(CC(=O)O)c(C)n2C(=O)c1ccc(Cl)cc1` [Indomethacin, indomethacin]: the ED50 (po) came to 0.3 mg/kg. Regarding `CCCCC1C(=O)N(c2ccccc2)N(c2ccccc2)C1=O` [Phenylbutazone, phenylbutazone], the ED50 under setting [1] is 10 mg/kg.
